Measurements published in patent US20040029777A1, “Pharmaceutical preparation for taste masking” (TAISHO PHARMACEUTICAL CO., LTD., priority 2002, published 2004).

What was measured:
[1] = In vitro dissolution test, USP apparatus 2 (paddle); type: physicochemical; conditions: distilled water (FIG. 16)
Experimental: Complexes that corresponded to 150 mg of ibuprofen were subjected to dissolution in a USP (United States Pharmacopoeia) dissolution apparatus 2 (Paddle-type) with several kinds of solutions (900 ml). This dissolution test was conducted at 37° C., and a paddle rotation speed of 50 rpm was maintained. A UV detector was used to measure the absorbance of dissolution liquids at regular intervals of up to 120 minutes.
The complexes containing 150 mg of ibuprofen were subjected to dissolution testing using a USP dissolution apparatus 2 (Paddle-type) with several kinds of solutions (900 ml). This dissolution test was conducted at 37° C., at a paddle rotation speed of 50 rpm. A UV detector was used to measure the absorbance of dissolution liquids at regular intervals up to 120 minutes.

[2] = Thermographic analysis (TGA), change in weight at set temperature; type: physicochemical
Experimental: Samples weighing approximately 10 mg were placed in a platinum pan and the change in weight at a set temperature (100° C., 150° C.) was measured using Perkin-Elmer Thermal Analysis Equipment.

dissolution profile saturation [1]: ~40%
TGA change in weight (sublimation) ([2]; 100° C.): showed sublimation
TGA change in weight (sublimation) ([2]; 150° C.): showed sublimation
Structure (SMILES): CC(C)Cc1ccc(C(C)C(=O)O)cc1 (stereo not drawn) [ibuprofen, Ibuprofen]
